Data as given in PMC7614683, “A small molecule PI3Kα activator for cardioprotection and neuroregeneration” (Nature, 2023).

Molecular target: T1, full length p110α/p85α (Homo sapiens, UniProt P42336)
T1 construct: Full-length human p110α was expressed either in a complex with full-length human p85α (for HTS, biochemistry and HDX-MS); 6xHis tag followed by TEV protease site (N); host or cells: Spodoptera frugiperda Sf9, baculovirus
Assay: HDX-MS
Assay type: binding
Method: Sample preparation: HDX-MS experiments were carried out as described previously. […] In total, three biological replicates, i.e. three separate protein preparations, each with exchange experiments carried out in triplicate were conducted. Data presented in the manuscript is a single biological replicate. Data acquisition and analysis were as follows: Each sample was thawed and injected onto an M-Class Acquity UPLC with HDX Technology (Waters) kept at 0.1°C. Proteins were digested in-line using an Enzymate Pepsin Column (Waters, #186007233) at 15°C for 2 min at 200 μl/min. Peptic peptides were then eluted onto an Acquity UPLC BEH C18 Column (Waters, #186002346) equilibrated in Pepsin-A buffer (0.1% formic acid) and separated using a 5-35% gradient of Pepsin-B buffer (0.1% formic acid, 99% acetonitrile) over 7 min at a flowrate of 40 μl/min. Data were collected on a Waters Cyclic IMS, with an electrospray ionisation source, from 50-2000 m/z. Data were collected in the HDMS^E mode. A single pass of the cyclic IMS was conducted. A “blank” sample of protein dilution buffer with quench was run between samples, and carry-over of peptides was routinely monitored. Five replicates were used to identify non-deuterated peptides. Criteria used to include peptides in the HDX-MS dataset were: minimum intensity 5000, minimum sequence length 5, maximum sequence length 25, a minimum of 3 fragment ions, a minimum of 0.1 products per amino acid, a minimum score of 6.62, a maximum MH+ Error of 10 ppm, identification in at least two datasets with a retention time RSD of less than 10%. Data was analysed using Protein Lynx Global Server (Waters) and DynamX (Waters). All peptides were manually inspected for EX1 kinetics and sufficient quality of the peptide envelope. Data quality, experiment design, and reporting of data meets the criteria as determined by the HDX-MS community. Uptake files were created using Baryonyx. Data are available via ProteomeXchange with identifier PXD037721.

[1] = PK3CA_HUMAN peptide 241-250, time point 3 of 5
[2] = PK3CA_HUMAN peptide 241-250, time point 4 of 5
[3] = PK3CA_HUMAN peptide 241-250, time point 5 of 5
[4] = PK3CA_HUMAN peptide 260-266, time point 1 of 5
[5] = PK3CA_HUMAN peptide 260-266, time point 2 of 5
[6] = PK3CA_HUMAN peptide 260-266, time point 3 of 5
[7] = PK3CA_HUMAN peptide 260-266, time point 4 of 5
[8] = PK3CA_HUMAN peptide 260-266, time point 5 of 5
[9] = PK3CA_HUMAN peptide 262-272, time point 1 of 5
[10] = PK3CA_HUMAN peptide 262-272, time point 2 of 5
[11] = PK3CA_HUMAN peptide 262-272, time point 3 of 5
[12] = PK3CA_HUMAN peptide 262-272, time point 4 of 5
[13] = PK3CA_HUMAN peptide 262-272, time point 5 of 5
[14] = PK3CA_HUMAN peptide 273-281, time point 1 of 5
[15] = PK3CA_HUMAN peptide 273-281, time point 2 of 5
[16] = PK3CA_HUMAN peptide 273-281, time point 3 of 5
[17] = PK3CA_HUMAN peptide 273-281, time point 4 of 5
[18] = PK3CA_HUMAN peptide 273-281, time point 5 of 5
[19] = PK3CA_HUMAN peptide 278-286, time point 1 of 5
[20] = PK3CA_HUMAN peptide 278-286, time point 2 of 5
[21] = PK3CA_HUMAN peptide 278-286, time point 3 of 5
[22] = PK3CA_HUMAN peptide 278-286, time point 4 of 5
[23] = PK3CA_HUMAN peptide 278-286, time point 5 of 5
[24] = PK3CA_HUMAN peptide 287-293, time point 1 of 5
[25] = PK3CA_HUMAN peptide 287-293, time point 2 of 5
[26] = PK3CA_HUMAN peptide 287-293, time point 3 of 5
[27] = PK3CA_HUMAN peptide 287-293, time point 4 of 5
[28] = PK3CA_HUMAN peptide 287-293, time point 5 of 5
[29] = PK3CA_HUMAN peptide 288-293, time point 1 of 5
[30] = PK3CA_HUMAN peptide 288-293, time point 2 of 5
[31] = PK3CA_HUMAN peptide 288-293, time point 3 of 5
[32] = PK3CA_HUMAN peptide 288-293, time point 4 of 5
[33] = PK3CA_HUMAN peptide 288-293, time point 5 of 5
[34] = PK3CA_HUMAN peptide 326-333, time point 1 of 5
[35] = PK3CA_HUMAN peptide 326-333, time point 2 of 5
[36] = PK3CA_HUMAN peptide 326-333, time point 3 of 5
[37] = PK3CA_HUMAN peptide 326-333, time point 4 of 5

T1 sequence (P42336 whole entry): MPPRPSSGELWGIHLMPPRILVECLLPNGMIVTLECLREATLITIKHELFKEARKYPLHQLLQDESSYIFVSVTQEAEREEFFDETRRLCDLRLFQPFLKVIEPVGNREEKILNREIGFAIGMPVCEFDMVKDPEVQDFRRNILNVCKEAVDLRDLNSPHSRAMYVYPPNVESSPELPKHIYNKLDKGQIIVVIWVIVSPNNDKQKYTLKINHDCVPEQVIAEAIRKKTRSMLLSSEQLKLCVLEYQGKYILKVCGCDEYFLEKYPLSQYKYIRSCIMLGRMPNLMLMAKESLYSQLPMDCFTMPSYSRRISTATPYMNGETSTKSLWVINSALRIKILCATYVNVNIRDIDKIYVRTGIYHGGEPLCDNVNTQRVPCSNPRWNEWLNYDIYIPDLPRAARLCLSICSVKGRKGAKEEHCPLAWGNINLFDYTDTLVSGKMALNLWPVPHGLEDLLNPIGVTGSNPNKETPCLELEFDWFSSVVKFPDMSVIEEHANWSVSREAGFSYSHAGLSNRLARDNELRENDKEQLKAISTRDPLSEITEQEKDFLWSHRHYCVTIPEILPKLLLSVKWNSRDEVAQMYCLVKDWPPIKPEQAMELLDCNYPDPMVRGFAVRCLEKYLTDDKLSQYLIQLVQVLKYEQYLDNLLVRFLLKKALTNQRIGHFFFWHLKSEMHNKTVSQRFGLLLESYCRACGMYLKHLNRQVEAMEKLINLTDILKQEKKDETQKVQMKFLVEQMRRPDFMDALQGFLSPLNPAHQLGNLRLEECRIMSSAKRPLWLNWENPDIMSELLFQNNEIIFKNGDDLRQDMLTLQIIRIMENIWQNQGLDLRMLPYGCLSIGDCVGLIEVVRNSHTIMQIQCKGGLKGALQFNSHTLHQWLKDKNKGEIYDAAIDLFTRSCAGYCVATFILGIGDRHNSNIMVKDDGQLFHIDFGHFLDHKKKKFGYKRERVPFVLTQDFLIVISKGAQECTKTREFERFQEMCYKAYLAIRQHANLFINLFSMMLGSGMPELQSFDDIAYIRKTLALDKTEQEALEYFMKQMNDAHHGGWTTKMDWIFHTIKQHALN
T1 sequence (P27986 whole entry partner): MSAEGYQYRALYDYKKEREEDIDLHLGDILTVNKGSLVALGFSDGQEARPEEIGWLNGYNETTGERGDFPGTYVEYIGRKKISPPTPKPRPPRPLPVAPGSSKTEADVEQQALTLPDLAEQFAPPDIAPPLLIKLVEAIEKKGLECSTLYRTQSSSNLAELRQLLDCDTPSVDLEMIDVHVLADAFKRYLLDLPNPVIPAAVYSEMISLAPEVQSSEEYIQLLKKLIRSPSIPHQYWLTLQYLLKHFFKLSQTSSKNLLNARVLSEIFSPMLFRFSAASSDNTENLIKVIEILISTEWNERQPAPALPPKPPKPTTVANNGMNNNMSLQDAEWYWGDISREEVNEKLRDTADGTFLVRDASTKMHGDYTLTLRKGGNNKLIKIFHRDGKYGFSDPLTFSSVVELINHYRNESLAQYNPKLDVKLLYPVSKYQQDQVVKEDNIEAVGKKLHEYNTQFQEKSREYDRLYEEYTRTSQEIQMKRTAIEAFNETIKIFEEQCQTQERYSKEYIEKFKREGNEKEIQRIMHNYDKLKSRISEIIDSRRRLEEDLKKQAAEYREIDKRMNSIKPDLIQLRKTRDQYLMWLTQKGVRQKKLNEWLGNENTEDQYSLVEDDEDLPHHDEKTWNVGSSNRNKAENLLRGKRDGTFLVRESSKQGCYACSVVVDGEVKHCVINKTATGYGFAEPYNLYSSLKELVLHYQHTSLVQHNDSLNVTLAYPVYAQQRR

SMILES: CCN1CCN(c2ccc(Nc3cc(Nc4cccc5c4N(C(C)=O)CC5)ccn3)cc2)CC1 [Compound 1938]
- HDX difference (%D) [1]: 0.6%
- HDX difference (Da) [1]: 0.0529 Da
- HDX difference (%D) [2]: 0.112%
- HDX difference (Da) [2]: 0.01 Da
- HDX difference (%D) [3]: 0.113%
- HDX difference (Da) [3]: 0.01 Da
- HDX difference (%D) [4]: -0.0157%
- HDX difference (Da) [4]: -0.000943 Da
- HDX difference (%D) [5]: 0.0014%
- HDX difference (Da) [5]: 8.39e-5 Da
- HDX difference (%D) [6]: 0.136%
- HDX difference (Da) [6]: 0.00818 Da
- HDX difference (%D) [7]: 0.659%
- HDX difference (Da) [7]: 0.04 Da
- HDX difference (%D) [8]: 1.2%
- HDX difference (Da) [8]: 0.07 Da
- HDX difference (%D) [9]: -0.8%
- HDX difference (Da) [9]: -0.07 Da
- HDX difference (%D) [10]: 0.264%
- HDX difference (Da) [10]: 0.0238 Da
- HDX difference (%D) [11]: 0.3%
- HDX difference (Da) [11]: 0.0282 Da
- HDX difference (%D) [12]: -0.571%
- HDX difference (Da) [12]: -0.05 Da
- HDX difference (%D) [13]: -0.7%
- HDX difference (Da) [13]: -0.06 Da
- HDX difference (%D) [14]: 1.3%
- HDX difference (Da) [14]: 0.10 Da
- HDX difference (%D) [15]: 0.9%
- HDX difference (Da) [15]: 0.07 Da
- HDX difference (%D) [16]: 0.8%
- HDX difference (Da) [16]: 0.06 Da
- HDX difference (%D) [17]: 0.743%
- HDX difference (Da) [17]: 0.06 Da
- HDX difference (%D) [18]: 0.428%
- HDX difference (Da) [18]: 0.0342 Da
- HDX difference (%D) [19]: -0.131%
- HDX difference (Da) [19]: -0.01 Da
- HDX difference (%D) [20]: -0.178%
- HDX difference (Da) [20]: -0.0142 Da
- HDX difference (%D) [21]: -0.652%
- HDX difference (Da) [21]: -0.05 Da
- HDX difference (%D) [22]: -1.2%
- HDX difference (Da) [22]: -0.10 Da
- HDX difference (%D) [23]: -1.0%
- HDX difference (Da) [23]: -0.08 Da
- HDX difference (%D) [24]: 0.00815%
- HDX difference (Da) [24]: 0.000489 Da
- HDX difference (%D) [25]: 0.168%
- HDX difference (Da) [25]: 0.01 Da
- HDX difference (%D) [26]: -0.19%
- HDX difference (Da) [26]: -0.0114 Da
- HDX difference (%D) [27]: -0.0604%
- HDX difference (Da) [27]: -0.00362 Da
- HDX difference (%D) [28]: -0.4%
- HDX difference (Da) [28]: -0.0241 Da
- HDX difference (%D) [29]: -0.334%
- HDX difference (Da) [29]: -0.0167 Da
- HDX difference (%D) [30]: -0.17%
- HDX difference (Da) [30]: -0.00848 Da
- HDX difference (%D) [31]: -0.5%
- HDX difference (Da) [31]: -0.0241 Da
- HDX difference (%D) [32]: 0.8%
- HDX difference (Da) [32]: 0.04 Da
- HDX difference (%D) [33]: -0.113%
- HDX difference (Da) [33]: -0.00564 Da
- HDX difference (%D) [34]: -1.8%
- HDX difference (Da) [34]: -0.13 Da
- HDX difference (%D) [35]: -4.4%
- HDX difference (Da) [35]: -0.31 Da
- HDX difference (%D) [36]: -3.0%
- HDX difference (Da) [36]: -0.21 Da
- HDX difference (%D) [37]: -3.1%
- HDX difference (Da) [37]: -0.21 Da
- HDX difference (%D) (PK3CA_HUMAN peptide 326-333, time point 5 of 5): -4.2%
